These results are taken from publication PMC5218480 (PLoS ONE, 2017).

The experiment has as its system MV-4-11 cells. The experiment is described as follows: Gene expression microarray analysis (Affymetrix PrimeView) and GSEA. It counts as cell-based, human. More on the design: RFU PODN (11730768_x_at) / Fold change /veh PODN (11730768_x_at) / RFU LINC00158 (11744669_a_at) / Fold change /veh LINC00158 (11744669_a_at) / RFU DUSP10 (11751237_a_at) / Fold change /veh DUSP10 (11751237_a_at) / RFU ID3 (11757404_x_at) / Fold change /veh ID3 (11757404_x_at) / RFU PLEKHG5 (11737974_s_at) / Fold change /veh PLEKHG5 (11737974_s_at) / RFU LRRC4B (11730491_at) / Fold change /veh LRRC4B (11730491_at) / RFU GIMAP4 (11747438_a_at) / Fold change /veh GIMAP4 (11747438_a_at) / RFU KRT8 (11758183_x_at) / Fold change /veh KRT8 (11758183_x_at) / RFU CNN1 (11734310_a_at) / Fold change /veh CNN1 (11734310_a_at) / RFU VPS37D (11726825_at) / Fold change /veh VPS37D (11726825_at) / RFU C10orf10 (11716522_x_at) / Fold change /veh C10orf10 (11716522_x_at) / RFU KIR2DL2 /// KIR2DL4 /// KIR2DL5A /// KIR2DL5B /// KIR2DS1 /// KIR2DS2 /// KIR2DS3 /// KIR2DS4 /// KIR3DL3 /// KIR3DL3 /// KIR3DS1 (11738374_at) / Fold change /veh KIR2DL2 /// KIR2DL4 /// KIR2DL5A /// KIR2DL5B /// KIR2DS1 /// KIR2DS2 /// KIR2DS3 /// KIR2DS4 /// KIR3DL3 /// KIR3DL3 /// KIR3DS1 (11738374_at) / RFU C1QL1 (11718748_at) / Fold change /veh C1QL1 (11718748_at) / RFU TMPRSS4 (11747572_a_at) / Fold change /veh TMPRSS4 (11747572_a_at) / RFU HAMP (11756126_x_at) / Fold change /veh HAMP (11756126_x_at) / RFU RNFT2 (11725882_a_at) / Fold change /veh RNFT2 (11725882_a_at) / RFU NR4A2 (11747474_a_at) / Fold change /veh NR4A2 (11747474_a_at) / RFU ABCC12 (11746883_a_at) / Fold change /veh ABCC12 (11746883_a_at) / RFU TMEM136 (11760407_x_at) / Fold change /veh TMEM136 (11760407_x_at) / RFU CLDN22 /// WWC2 (11732394_at) / Fold change /veh CLDN22 /// WWC2 (11732394_at) / RFU HLA-DPB1 (11760878_x_at) / Fold change /veh HLA-DPB1 (11760878_x_at) / RFU SPINT1 (11716480_a_at) / Fold change /veh SPINT1 (11716480_a_at) / RFU GAP43 (11754022_s_at) / Fold change /veh GAP43 (11754022_s_at) / RFU A4GNT (11735810_at) / Fold change /veh A4GNT (11735810_at) / RFU PRB3 (11715151_x_at) / Fold change /veh PRB3 (11715151_x_at) / RFU TUBB4B (11761932_at) / Fold change /veh TUBB4B (11761932_at) / RFU CAPN14 (11732068_a_at) / Fold change /veh CAPN14 (11732068_a_at) / RFU TMCC2 (11721928_a_at) / Fold change /veh TMCC2 (11721928_a_at) / RFU IRGQ (11745062_a_at) / Fold change /veh IRGQ (11745062_a_at) / RFU FAM174B (11720279_a_at) / Fold change /veh FAM174B (11720279_a_at) / RFU TMPRSS4 (11748680_a_at) / Fold change /veh TMPRSS4 (11748680_a_at) / RFU FAM212B (11763350_a_at) / Fold change /veh FAM212B (11763350_a_at) / RFU PLEKHG5 (11743358_a_at) / Fold change /veh PLEKHG5 (11743358_a_at) / RFU ZSCAN30 (11745921_a_at) / Fold change /veh ZSCAN30 (11745921_a_at) / RFU CMKLR1 (11741424_a_at) / Fold change /veh CMKLR1 (11741424_a_at) / RFU LOC101060620 /// MAPK8IP1 (11723275_at) / Fold change /veh LOC101060620 /// MAPK8IP1 (11723275_at) / RFU SPTSSB (11747773_x_at) / Fold change /veh SPTSSB (11747773_x_at) / RFU PRSS12 (11739890_at) / Fold change /veh PRSS12 (11739890_at) / RFU BIN1 (11741810_x_at) / Fold change /veh BIN1 (11741810_x_at) / RFU WNT11 (11732464_a_at) / Fold change /veh WNT11 (11732464_a_at) / RFU C10orf10 (11716521_a_at) / Fold change /veh C10orf10 (11716521_a_at) / RFU C5orf56 (11738089_at) / Fold change /veh C5orf56 (11738089_at) / RFU CYB561 (11721691_x_at) / Fold change /veh CYB561 (11721691_x_at) / RFU ANKRD19P (11752326_a_at) / Fold change /veh ANKRD19P (11752326_a_at) / RFU OR2T12 /// OR2T33 /// OR2T8 (11738714_s_at) / Fold change /veh OR2T12 /// OR2T33 /// OR2T8 (11738714_s_at) / RFU VCAN (11748164_a_at) / Fold change /veh VCAN (11748164_a_at) / RFU JSRP1 (11732532_at) / Fold change /veh JSRP1 (11732532_at) / RFU KRTAP10-11 (11738290_x_at) / Fold change /veh KRTAP10-11 (11738290_x_at) / RFU MYO3A (11730013_a_at) / Fold change /veh MYO3A (11730013_a_at) / RFU EBF3 (11725865_a_at) / Fold change /veh EBF3 (11725865_a_at) / RFU CAMK2N1 (11719241_x_at) / Fold change /veh CAMK2N1 (11719241_x_at) / RFU C5orf56 (11738088_a_at) / Fold change /veh C5orf56 (11738088_a_at) / RFU OLFML3 (11715873_a_at) / Fold change /veh OLFML3 (11715873_a_at) / RFU LOC100653217 /// NTM (11731650_a_at) / Fold change /veh LOC100653217 /// NTM (11731650_a_at) / RFU MAPK11 (11762145_a_at) / Fold change /veh MAPK11 (11762145_a_at) / RFU FIZ1 (11724087_x_at) / Fold change /veh FIZ1 (11724087_x_at) / RFU OASL (11726364_x_at) / Fold change /veh OASL (11726364_x_at) / RFU SOX15 (11748057_x_at) / Fold change /veh SOX15 (11748057_x_at) / RFU CD79A (11719716_a_at) / Fold change /veh CD79A (11719716_a_at) / RFU HIST1H1D (11736915_at) / Fold change /veh HIST1H1D (11736915_at) / RFU CASKIN2 (11723855_a_at) / Fold change /veh CASKIN2 (11723855_a_at) / RFU LOC730098 (11760151_x_at) / Fold change /veh LOC730098 (11760151_x_at) / RFU OR4N2 (11742367_at) / Fold change /veh OR4N2 (11742367_at) / RFU PRRT2 (11749266_a_at) / Fold change /veh PRRT2 (11749266_a_at) / RFU SNX32 (11753110_a_at) / Fold change /veh SNX32 (11753110_a_at) / RFU CDHR5 (11726645_a_at) / Fold change /veh CDHR5 (11726645_a_at) / RFU RCAN1 (11760418_a_at) / Fold change /veh RCAN1 (11760418_a_at) / RFU FAM167A (11723789_a_at) / Fold change /veh FAM167A (11723789_a_at) / RFU FAM26E (11764081_at) / Fold change /veh FAM26E (11764081_at) / RFU ISYNA1 (11749810_s_at) / Fold change /veh ISYNA1 (11749810_s_at) / RFU ACY1 (11761880_at) / Fold change /veh ACY1 (11761880_at) / RFU 11764098_at / Fold change /veh 11764098_at / RFU SAMD14 (11745864_x_at) / Fold change /veh SAMD14 (11745864_x_at) / RFU NPB (11741838_a_at) / Fold change /veh NPB (11741838_a_at) / RFU TMPRSS6 (11731388_a_at) / Fold change /veh TMPRSS6 (11731388_a_at) / RFU KRTAP10-2 (11738614_at) / Fold change /veh KRTAP10-2 (11738614_at) / RFU ARHGAP8 /// PRR5-ARHGAP8 (11727945_x_at) / Fold change /veh ARHGAP8 /// PRR5-ARHGAP8 (11727945_x_at) / RFU KRTAP5-7 /// NADSYN1 (11734609_at) / Fold change /veh KRTAP5-7 /// NADSYN1 (11734609_at) / RFU RASL12 (11751679_a_at) / Fold change /veh RASL12 (11751679_a_at) / RFU CDKN2B (11736163_a_at) / Fold change /veh CDKN2B (11736163_a_at) / RFU PRF1 (11729649_at) / Fold change /veh PRF1 (11729649_at) / RFU, ZNF638 /// ZNF638-IT1 / Fold change vs veh, ZNF638 /// ZNF638-IT1 / RFU, PANK3 / Fold change vs veh, PANK3 / RFU, SH3YL1 / Fold change vs veh, SH3YL1 / RFU, ZEB2 / Fold change vs veh, ZEB2 / RFU, NRIP1 / Fold change vs veh, NRIP1 / RFU, PTTG1IP / Fold change vs veh, PTTG1IP / RFU, CAPN2 / Fold change vs veh, CAPN2 / RFU, MED14 / Fold change vs veh, MED14 / RFU, SNORA58 / Fold change vs veh, SNORA58 / RFU, C1orf63 / Fold change vs veh, C1orf63 / RFU, LRRFIP1 / Fold change vs veh, LRRFIP1 / RFU, NDUFAF7 / Fold change vs veh, NDUFAF7 / RFU, SLC12A2 / Fold change vs veh, SLC12A2 / RFU, IBTK / Fold change vs veh, IBTK / RFU, ESF1 / Fold change vs veh, ESF1 / Fold change vs veh, TMEM50B / RFU, TAOK1 / Fold change vs veh, TAOK1 / RFU, ACBD3 / Fold change vs veh, ACBD3 / RFU, TMA16 / Fold change vs veh, TMA16 / RFU, RWDD3 / Fold change vs veh, RWDD3 / RFU, BCAT1 / Fold change vs veh, BCAT1 / RFU, EDEM3 / Fold change vs veh, EDEM3 / RFU, TMEM33 / Fold change vs veh, TMEM33 / RFU, WDR75 / Fold change vs veh, WDR75 / RFU, AHCTF1 / Fold change vs veh, AHCTF1 / RFU, TFRC / Fold change vs veh, TFRC / RFU, ZDHHC17 / Fold change vs veh, ZDHHC17 / RFU, NOM1 / Fold change vs veh, NOM1 / RFU, ARL8B / Fold change vs veh, ARL8B / RFU, ZBTB11 / Fold change vs veh, ZBTB11 / RFU, TAMM41 / Fold change vs veh, TAMM41 / RFU, KIAA1704 /// LOC100996395 / Fold change vs veh, KIAA1704 /// LOC100996395 / RFU, ING1 / Fold change vs veh, ING1 / RFU, TRMT61B / Fold change vs veh, TRMT61B / RFU, FUBP3 / Fold change vs veh, FUBP3 / RFU, TP53 / Fold change vs veh, TP53 / RFU, TNKS2 / Fold change vs veh, TNKS2 / RFU, ZFP14 / Fold change vs veh, ZFP14 / RFU, ACTR2 / Fold change vs veh, ACTR2 / RFU, PPP3R1 / Fold change vs veh, PPP3R1 / RFU, PIK3R1 / Fold change vs veh, PIK3R1 / RFU, HNRNPA1 / Fold change vs veh, HNRNPA1 / RFU, RNF170 / Fold change vs veh, RNF170 / RFU, ZNF28 / Fold change vs veh, ZNF28 / RFU, RNGTT / Fold change vs veh, RNGTT / RFU, OGT / Fold change vs veh, OGT / RFU, BRD1 / Fold change vs veh, BRD1 / RFU, MARS / Fold change vs veh, MARS / RFU, ZNF655 / Fold change vs veh, ZNF655 / RFU, FAHD1 / Fold change vs veh, FAHD1 / RFU, BDP1 / Fold change vs veh, BDP1 / RFU, LRRCC1 / Fold change vs veh, LRRCC1 / RFU, ARID1A / Fold change vs veh, ARID1A / RFU, ZNF146 / Fold change vs veh, ZNF146 / RFU, ZNF330 / Fold change vs veh, ZNF330 / RFU, GPN3 / Fold change vs veh, GPN3 / RFU, C9orf123 / Fold change vs veh, C9orf123 / RFU, N4BP2L2 / Fold change vs veh, N4BP2L2 / RFU, ARFIP1 / Fold change vs veh, ARFIP1 / RFU, FAM179B / Fold change vs veh, FAM179B / RFU, BCL10 / Fold change vs veh, BCL10 / RFU, UHRF1BP1L / Fold change vs veh, UHRF1BP1L / RFU, BET1 / Fold change vs veh, BET1 / RFU, CNOT2 / Fold change vs veh, CNOT2 / RFU, ZNF268 / Fold change vs veh, ZNF268 / Fold change vs veh, ZNF507 / RFU, DGCR2 / Fold change vs veh, DGCR2 / RFU, WDSUB1 / Fold change vs veh, WDSUB1 / Fold change vs veh, HSP90B1 /// MIR3652 / RFU, ADSS / Fold change vs veh, ADSS / RFU, GK / Fold change vs veh, GK / RFU, ZNF148 / Fold change vs veh, ZNF148 / RFU, TAF9 / Fold change vs veh, TAF9 / RFU, SLC1A5 / Fold change vs veh, SLC1A5 / RFU, SLMO2 / Fold change vs veh, SLMO2 / RFU, ABCC4 / Fold change vs veh, ABCC4 / RFU, LOC101060439 /// RAP1B / Fold change vs veh, LOC101060439 /// RAP1B / RFU, RFX7 / Fold change vs veh, RFX7 / RFU, GTPBP10 / Fold change vs veh, GTPBP10 / RFU, CNEP1R1 / Fold change vs veh, CNEP1R1 / RFU, BIVM-ERCC5 /// ERCC5 / Fold change vs veh, BIVM-ERCC5 /// ERCC5 / RFU, ILF3 / Fold change vs veh, ILF3 / RFU 11762660_at / Fold change /veh 11762660_at / RFU VCAN (11757783_s_at) / Fold change /veh VCAN (11757783_s_at) / RFU DDX43 (11728927_at) / Fold change /veh DDX43 (11728927_at) / RFU KRT8 (11758188_x_at) / Fold change /veh KRT8 (11758188_x_at) / RFU NKD1 (11759106_at) / Fold change /veh NKD1 (11759106_at) / RFU SRD5A1 (11742802_a_at) / Fold change /veh SRD5A1 (11742802_a_at) / RFU TPSAB1 /// TPSB2 (11721975_s_at) / Fold change /veh TPSAB1 /// TPSB2 (11721975_s_at) / RFU GSTM3 (11746129_a_at) / Fold change /veh GSTM3 (11746129_a_at) / RFU IL23R (11737362_x_at) / Fold change /veh IL23R (11737362_x_at) / RFU TMEM51 (11727254_a_at) / Fold change /veh TMEM51 (11727254_a_at) / RFU PIWIL2 (11732686_x_at) / Fold change /veh PIWIL2 (11732686_x_at) / RFU ORM1 (11744905_x_at) / Fold change /veh ORM1 (11744905_x_at) / RFU CCDC152 (11743942_at) / Fold change /veh CCDC152 (11743942_at) / RFU ECM1 (11717891_a_at) / Fold change /veh ECM1 (11717891_a_at) / RFU IL23R (11748794_a_at) / Fold change /veh IL23R (11748794_a_at) / RFU TNFAIP8L3 (11732012_x_at) / Fold change /veh TNFAIP8L3 (11732012_x_at) / RFU MBOAT4 (11741988_at) / Fold change /veh MBOAT4 (11741988_at) / RFU 11764193_at / Fold change /veh 11764193_at / RFU TMEM53 (11763286_at) / Fold change /veh TMEM53 (11763286_at) / RFU MAGEB2 (11727129_at) / Fold change /veh MAGEB2 (11727129_at) / RFU TMEM200A (11744735_a_at) / Fold change /veh TMEM200A (11744735_a_at) / RFU CCDC152 (11751479_a_at) / Fold change /veh CCDC152 (11751479_a_at) / RFU FAM211A (11726209_a_at) / Fold change /veh FAM211A (11726209_a_at) / RFU RGS16 (11746705_a_at) / Fold change /veh RGS16 (11746705_a_at) / RFU VCAN (11755009_s_at) / Fold change /veh VCAN (11755009_s_at) / RFU RHOB (11743442_s_at) / Fold change /veh RHOB (11743442_s_at) / RFU RGS16 (11720943_a_at) / Fold change /veh RGS16 (11720943_a_at) / RFU RGS16 (11720944_at) / Fold change /veh RGS16 (11720944_at) / RFU, VPS4B / Fold change vs veh, VPS4B / RFU, CREB1 / Fold change vs veh, CREB1 / RFU, DNAJC13 / Fold change vs veh, DNAJC13 / RFU, GNAQ / Fold change vs veh, GNAQ / RFU, CDK5R1 / Fold change vs veh, CDK5R1 / RFU, ZRANB3 / Fold change vs veh, ZRANB3 / RFU, CUL4A / Fold change vs veh, CUL4A / RFU, CCNY / Fold change vs veh, CCNY / RFU, UFL1 / Fold change vs veh, UFL1 / RFU, COG3 / Fold change vs veh, COG3 / RFU, DIAPH2 / Fold change vs veh, DIAPH2 / RFU, SKA2 / Fold change vs veh, SKA2 / RFU, AFF3 / Fold change vs veh, AFF3 / RFU, LMF1 / Fold change vs veh, LMF1 / RFU, IPO11 / Fold change vs veh, IPO11 / RFU, DFFB / Fold change vs veh, DFFB / RFU, FOXP1 / Fold change vs veh, FOXP1 / RFU, CARD8 / Fold change vs veh, CARD8 / RFU, STRN3 / Fold change vs veh, STRN3 / RFU, ADK / Fold change vs veh, ADK / RFU, RASSF2 / Fold change vs veh, RASSF2 / RFU, WIPF1 / Fold change vs veh, WIPF1 / RFU, LARP1B / Fold change vs veh, LARP1B / RFU, RASA1 / Fold change vs veh, RASA1 / RFU, RB1 / Fold change vs veh, RB1 / RFU, PPFIA1 / Fold change vs veh, PPFIA1 / RFU, MAT2A / Fold change vs veh, MAT2A / RFU, CCT5 / Fold change vs veh, CCT5 / RFU, WDR92 / Fold change vs veh, WDR92 / RFU, CUX1 / Fold change vs veh, CUX1 / RFU, TTC7A / Fold change vs veh, TTC7A / RFU, TMEM135 / Fold change vs veh, TMEM135 / RFU, DEPTOR / Fold change vs veh, DEPTOR / RFU, CPM / Fold change vs veh, CPM / RFU, DNAJB6 / Fold change vs veh, DNAJB6 / RFU, CACNA2D3 / Fold change vs veh, CACNA2D3 / RFU, DTX4 / Fold change vs veh, DTX4 / RFU, TFCP2 / Fold change vs veh, TFCP2 / RFU, GMCL1 /// GMCL1P1 / Fold change vs veh, GMCL1 /// GMCL1P1 / RFU, AEBP2 / Fold change vs veh, AEBP2 / RFU, SNHG1 /// SNORD22 /// SNORD25 /// SNORD26 /// SNORD27 /// SNORD28 /// SNORD29 /// SNORD31 / Fold change vs veh, SNHG1 /// SNORD22 /// SNORD25 /// SNORD26 /// SNORD27 /// SNORD28 /// SNORD29 /// SNORD31 / Fold change (Aza/veh), C12orf56 (ProbeSet 11735607_a_at) / Fold change (ACY-1035/veh), C12orf56 (ProbeSet 11735607_a_at) / Fold change (Aza/veh), FGFR1OP (ProbeSet 11751329_s_at) / Fold change (ACY-1035/veh), FGFR1OP (ProbeSet 11751329_s_at) / Fold change (Aza/veh), VPS36 (ProbeSet 11739960_a_at) / Fold change (ACY-1035/veh), VPS36 (ProbeSet 11739960_a_at) / RFU SYPL1 (11715823_x_at) / Fold change /veh SYPL1 (11715823_x_at) / RFU IGFBP7 (11715501_s_at) / Fold change /veh IGFBP7 (11715501_s_at) / RFU REEP3 (11722064_at) / Fold change /veh REEP3 (11722064_at) / RFU IGLL1 (11728026_x_at) / Fold change /veh IGLL1 (11728026_x_at): dose or concentration left out as unconfirmed. To be noted: ProbeSet 11743510_at; LIST D.

`Nc1ccc(-c2cccs2)cc1NC(=O)c1ccc2c(c1)cc(C1CC1)n2CCN1CCOCC1` [ACY-1035]: the “RFU, UFL1” value stood at 325.04 RFU.
